Assay results taken from patent US20210278408A1, “METHODS OF TREATMENT OF CANCER WITH SUBSTITUTED PYRROLE AND PYRAZOLE COMPOUNDS AND DIAGNOSIS OF CANCERS SUSCEPTIBLE TO TREATMENT WITH SUBSTITUTED PYRROLE AND PYRAZOLE COMPOUNDS” (Bantam Pharmaceutical, LLC, priority 2018, published 2021).
Where two headings read alike, the source gives them in different places.

System: 407 cancer cell lines
Assay: Cell viability of cancer cell lines (IC50), CellTiter-Glo Viability Assay, 96 h
Assay type: cell-based
Details: for IC50: read-out: Absolute IC50
Protocol: Viability was determined by using the 50% inhibitory concentration (IC50) as determined with the CellTiter-Glo® Viability Assay (Promega).
Experiments were initiated by first thawing and equilibrating the CellTiter-Glo® Buffer to room temperature. The lyophilized CellTiter-Glo® Substrate was also equilibrated to room temperature. The lyophilized substrate was reconstituted with the CellTiter-Glo® buffer to form the CellTiter-Glo® Reagent.
Cells were harvested during the logarithmic growth period, counted, and the cell concentration adjusted to 4.44×10^4 cells/mL using culture medium.
Cells were allowed to grow overnight and the following day, the TO reading was obtained by adding 10 μL culture medium to each well of Plate A. The plate was allowed to equilibrate at room temperature for thirty minutes, after which 50 μL CellTiter-Glo® reagent was added to each well. The contents were mixed for 5 min on an orbital shaker to induce cell lysis. Plates were incubated for 20 minutes to stabilize the luminescent signal and the TO luminescence recorded.
Test plate B was incubated for 96 h in the humidified incubator at 37° C. with 5% CO2.
Following the incubation, the plate was equilibrated at room temperature for thirty minutes. CellTiter-Glo® (50 μL) was added to each well of the plate and contents mixed for five minutes on an orbital shaker to induce cell lysis. The luminescent signal was allowed to stabilize at room temperature for 20 minutes and the luminescence recorded.
IC50 (EC50) was calculated using a dose-response curve, fitted using a nonlinear regression model with a sigmoidal dose response. Survival rate was calculated using the formula:
The Surviving rate (%)=(LumTest article−LumMedium control)/(LumNon-treated−LumMedium control)×100%.
Absolute IC50 (EC50) was calculated according to the dose-response curve generated by the statistical software (GraphPad Prism 5.0).

`N.N.[Cl][Pt][Cl]` [Cisplatin, reference compound] gave an IC50 (MV-4-11 cells, 96 h) of 0.41 µM, an IC50 (MX-1) of 2.39 µM and an IC50 (Molt-4) of 0.7 µM. The IC50 (MsTo 211H) was 2.5 µM, the IC50 (NAMALWA CSN/70) was 0.28 µM and the IC50 (NAMALWA cells, 96 h) was 0.63 µM. For the same compound, the IC50 (NB4 cells, 96 h) was 0.84 µM, the IC50 (NCI-H23 cells, 96 h) was 0.75 µM and the IC50 (NCI-H69 cells, 96 h) was 3.28 µM. The IC50 (NCI-H82, 96 h) was 1.83 µM, the IC50 (NCI-H146 cells, 96 h) was 1.81 µM and the IC50 (NCI-H187) was 0.68 µM. It also gave an IC50 (NCI-H209 cells, 96 h) of 0.44 µM, an IC50 (NCI-H226) of 3.56 µM and an IC50 (NCI-H292 cells, 96 h) of 2.25 µM. For the same compound, the IC50 (NCI-H322 cells, 96 h) was 10.8 µM, the IC50 (NCI-H358 cells, 96 h) was 6.07 µM and the “% inhibition at top conc.” value (NCI-H441 cells, 96 h) was 74.99%. The IC50 (NCI-H441 cells, 96 h) was 6.18 µM, the IC50 (NCI-H446 cells, 96 h) was 1.93 µM and the IC50 (NCI-H460 cells, 96 h) was 2.77 µM. It also gave an IC50 (NCI-H508 cells, 96 h) of 8.02 µM, an IC50 (NCI-H520 cells, 96 h) of 10.7 µM and an IC50 (NCI-H522 cells, 96 h) of 4.49 µM. For the same compound, the IC50 (NCI-H526 cells, 96 h) was 0.33 µM, the IC50 (NCI-H596) was 2.06 µM and the IC50 (NCI-H661 cells, 96 h) was 6.42 µM. It also gave an IC50 (NCI-H716 cells, 96 h) of 8.99 µM, an IC50 (NCI-H727 cells, 96 h) of 13.2 µM and an IC50 (NCI-H747 cells, 96 h) of 7.3 µM. The IC50 (NCI-H820 cells, 96 h) was 0.79 µM, the IC50 (NCI-H929) was 3.07 µM and the IC50 (NCI-H1048 cells, 96 h) was 1.37 µM. It also gave an IC50 (NCI-H1155 cells, 96 h) of 2.15 µM, an IC50 (NCI-H1299 cells, 96 h) of 2.67 µM and an IC50 (NCI-H1373) of 1.45 µM. It also gave an IC50 (NCI-H1395) of 2.91 µM, an IC50 (NCI-H1435) of 14.8 µM and an IC50 (NCI-H1437 cells, 96 h) of 5.67 µM. It also gave an IC50 (NCI-H1563) of 16.9 µM, an IC50 (NCI-H1568 cells, 96 h) of 0.95 µM and an IC50 (NCI-H1573 cells, 96 h) of 10.6 µM. It also gave an IC50 (NCI-H1581 cells, 96 h) of 2.98 µM, an IC50 (NCI-H1648 cells, 96 h) of 8.25 µM and an IC50 (NCI-H1650) of 5.12 µM. The IC50 (NCI-H1651 cells, 96 h) was 0.62 µM, the IC50 (NCI-H1666 cells, 96 h) was 6.16 µM and the IC50 (NCI-H1688) was 13.8 µM. It also gave an IC50 (NCI-H1703 cells, 96 h) of 6.11 µM, an IC50 (NCI-H1781 cells, 96 h) of 0.64 µM and an IC50 (NCI-H1838 cells, 96 h) of 6.41 µM. The IC50 (NCI-H1915 cells, 96 h) was 5.23 µM, the IC50 (NCI-H1975 cells, 96 h) was 3.24 µM and the IC50 (NCI-H1993 cells, 96 h) was 10.4 µM. The IC50 (NCI-H2009) was 16.7 µM, the IC50 (NCI-H2052) was 5.77 µM and the IC50 (NCI-H2087 cells, 96 h) was 1.01 µM. The IC50 (NCI-H2122 cells, 96 h) was 8.93 µM, the IC50 (NCI-H2170 cells, 96 h) was 1.02 µM and the IC50 (NCI-H2228 cells, 96 h) was 4.6 µM. The “% inhibition at top conc.” value (NCI-H2452) was 80.91%, the IC50 (NCI-H2452) was 35.5 µM and the IC50 (NCI-H3122 cells, 96 h) was 5.73 µM. It also gave an IC50 (NCI-N87, 96 h) of 0.95 µM, an IC50 (NK-92MI) of 1.2 µM and an IC50 (NOZ) of 1.19 µM. The IC50 (NUGC-3 cells, 96 h) was 0.25 µM, the IC50 (NUGC-4 cells, 96 h) was 3.65 µM and the IC50 (OCI-AML3) was 2.34 µM. The IC50 (OCI-LY7 cells, 96 h) was 1.81 µM, the IC50 (OCUG-1) was 16.3 µM and the IC50 (OCUM-1 cells, 96 h) was 9.94 µM. For the same compound, the IC50 (OCUM-2D cells, 96 h) was 2.59 µM, the IC50 (OCUM-2M cells, 96 h) was 3.62 µM and the “% inhibition at top conc.” value (OE19, 96 h) was 81.07%. The IC50 (OE19, 96 h) was 19.4 µM, the IC50 (OPM2) was 0.79 µM and the IC50 (OS-RC-2) was 3.5 µM. It also gave an IC50 (OSC-19 cells, 96 h) of 8.56 µM, an IC50 (OVCAR-3 cells, 96 h) of 5.11 µM and an IC50 (OVCAR-8 cells, 96 h) of 3.13 µM. It also gave an IC50 (OZ) of 15 µM, an IC50 (PANC-1) of 4.61 µM and an IC50 (PC-3) of 4.66 µM. The IC50 (PC-9 cells, 96 h) was 1.97 µM, the IC50 (PEER) was 2.04 µM and the IC50 (PL45) was 1.76 µM. The IC50 (PLC/PRF/5) was 8.47 µM, the IC50 (Pfeiffer cells, 96 h) was 1.99 µM and the IC50 (RBE cells, 96 h) was 4.14 µM. The IC50 (RD-ES) was 0.8 µM, the IC50 (RKO) was 3.08 µM and the IC50 (RPMI 8226 cells, 96 h) was 4.04 µM. The IC50 (RPMI-2650 cells, 96 h) was 1.89 µM, the IC50 (RS4;11) was 0.33 µM and the IC50 (RT4 cells, 96 h) was 4.2 µM. It also gave an IC50 (RT112/84) of 0.93 µM.
